pIC50: −log10 of the molar value.
Experiments:
[1] = tested on: IL-4 stimulated CD23 upregulation in human Ramos B cells (JAK-1/JAK-3, Stat-6); experiment: Assay for Ramos B-Cell Line Stimulated with IL-4 (CD23 upregulation, FACS); type: cell-based; conditions: Table III Example 3
Procedure, shortened: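 Log-phase Ramos B cells (5×10^4 per point, RPMI with 5% serum) pre-incubated with compound or DMSO 1 h at 37° C, then stimulated with IL-4 at 50 units/mL final for 20-24 h. CD23 upregulation measured by staining and flow cytometry.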

[2] = tested on: IFNγ induced ICAM-1 (CD54) up-regulation in U937 human monocytic cells (JAK/Stat pathway); experiment: U937 IFNγ ICAM1 FACS Assay; type: cell-based; conditions: Table III Example 6; 10 ng/mL IFNγ, 18-24 hours
Procedure, shortened: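 U937 cells (100,000 per well) were pre-incubated 30 min at 37 °C with serially 3-fold diluted compound, then stimulated with IFNγ for 18–24 h. Surface ICAM-1 was measured by flow cytometry as the geometric mean of ICAM-APC on gated live cells. EC50 values were calculated from dose curves, with % live cells also recorded.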

Structure (SMILES)	pIC50 [1]	pIC50 [2]
C#CCNS(=O)(=O)c1cc(Nc2ncc(C)c(Nc3ccc(CNS(=O)(=O)C4CC4)cc3)n2)ccc1C [Compound I-188, N4-(4-cyclopropylsulfonylaminomethyl)phenyl-5-methyl-N2-(4-methyl-3-propargylaminosulfonyl)phenyl-2,4-pyrimidinediamine]	7.36	6.71
Cc1cnc(Nc2cccc(S(N)(=O)=O)c2)nc1Nc1cccc(CNS(=O)(=O)C2CC2)c1 [Compound I-51, N2-(3-aminosulfonyl)phenyl-N4-(3-cyclopropylsulfonylaminomethyl)phenyl-5-methyl-2,4-pyrimidinediamine]	7.21	6.49
CCC(=O)N(Cc1cccc(Nc2nc(Nc3cccc(S(N)(=O)=O)c3)ncc2C)c1)S(=O)(=O)C1CC1 [Compound I-116, N2-(3-aminosulfonyl)phenyl-N4-[3-(N-cyclopropylsulfonyl-N-propionyl)aminomethyl]phenyl-5-methyl-2,4-pyrimidinediamine]	7.44	6.75
Cc1ccc(Nc2ncc(C)c(Nc3ccc(CNS(=O)(=O)C(C)C)cc3)n2)cc1S(N)(=O)=O [Compound I-117, N2-(3-aminosulfonyl-4-methyl)phenyl-N4-(4-isopropylsulfonylaminomethyl)phenyl-5-methyl-2,4-pyrimidinediamine]	7.41	7.22
Cc1ccc(Nc2ncc(F)c(Nc3ccc(CNS(=O)(=O)C4CCCC4)cc3)n2)cc1S(N)(=O)=O [Compound I-70, N2-(3-aminosulfonyl-4-methyl)phenyl-N4-(4-cyclopentylsulfonylaminomethyl)phenyl-5-fluoro-2,4-pyrimidinediamine]	7.37	6.80
COCCNS(=O)(=O)c1cc(Nc2ncc(C)c(Nc3ccc(CNS(=O)(=O)C4CC4)cc3)n2)ccc1C [Compound I-190, N4-(4-cyclopropylsulfonylaminomethyl)phenyl-N2-[3-(2-methoxyethyl)aminosulfonyl-4-methyl]phenyl-5-methyl-2,4-pyrimidinediamine]	7.14	6.73
Cc1ccc(Nc2ncc(F)c(Nc3cccc(CNS(=O)(=O)C4CC4)c3)n2)cc1S(N)(=O)=O [Compound I-34, N2-(3-aminosulfonyl-4-methyl)phenyl-N4-(3-cyclopropylsulfonylaminomethyl)phenyl-5-fluoro-2,4-pyrimidinediamine]	6.74	5.93
CCS(=O)(=O)NCc1cccc(Nc2nc(Nc3cccc(S(N)(=O)=O)c3)ncc2F)c1 [Compound I-12, N2-(3-aminosulfonyl)phenyl-N4-(3-ethylsulfonylaminomethyl)phenyl-5-fluoro-2,4-pyrimidinediamine]	6.77	5.80
NS(=O)(=O)c1ccc(Nc2ncc(F)c(Nc3ccc(CNS(=O)(=O)C4CCCCC4)cc3)n2)cc1 [Compound I-71, N2-(4-aminosulfonyl)phenyl-N4-(4-cyclohexylsulfonylaminomethyl)phenyl-5-fluoro-2,4-pyrimidinediamine]	6.92	6.40
COCCNS(=O)(=O)c1cccc(Nc2ncc(C)c(Nc3ccc(CNS(=O)(=O)C4CC4)cc3)n2)c1 [Compound I-184, N4-(4-cyclopropylsulfonylaminomethyl)phenyl-N2-[3-(2-methoxyethyl)aminosulfonyl]phenyl-5-methyl-2,4-pyrimidinediamine]	7.85	7.01
Cc1ccc(Nc2ncc(C)c(Nc3ccc(CNS(=O)(=O)C4CC4)c(Cl)c3)n2)cc1S(N)(=O)=O [Compound I-125, N2-(3-aminosulfonyl-4-methyl)phenyl-N4-(3-chloro-4-cyclopropylsulfonylaminomethyl)phenyl-5-methyl-2,4-pyrimidinediamine]	7.02	6.41
Cc1ccc(Nc2ncc(C)c(Nc3ccc4c(c3)CCN(S(=O)(=O)C3CC3)C4)n2)cc1S(N)(=O)=O [II-3, N2-(3-aminosulfonyl-4-methyl)phenyl-N4-[(N-cyclopropylsulfonyl)-1,2,3,4-tetrahydroisoquinolin-6-yl]-5-methyl-2,4-pyrimidinediamine]	7.71	7.06
CNS(=O)(=O)c1cccc(Nc2ncc(C)c(Nc3ccc(CNS(=O)(=O)C4CC4)cc3)n2)c1 [Compound I-161, N4-(4-cyclopropylsulfonylaminomethyl)phenyl-5-methyl-N2-(3-methylaminosulfonyl)phenyl-2,4-pyrimidinediamine]	7.78	7.29
Cc1cnc(Nc2cccc(S(=O)(=O)NCc3ccccc3)c2)nc1Nc1ccc(CNS(=O)(=O)C2CC2)cc1 [Compound I-154, N2-(3-benzylaminosulfonyl)phenyl-N4-(4-cyclopropylsulfonylaminomethyl)phenyl-5-methyl-2,4-pyrimidinediamine]	7.07	6.73
Cc1cnc(Nc2cccc(S(N)(=O)=O)c2)nc1Nc1ccc(CNS(=O)(=O)C2CC2)c(Cl)c1 [Compound I-119, N2-(3-aminosulfonyl)phenyl-N4-(3-chloro-4-cyclopropylsulfonylaminomethyl)phenyl-5-methyl-2,4-pyrimidinediamine]	7.27	6.27
NS(=O)(=O)c1cccc(Nc2ncc(F)c(Nc3ccc(CNS(=O)(=O)CC(F)(F)F)cc3)n2)c1 [Compound I-49, N2-(3-aminosulfonyl)phenyl-5-fluoro-N4-(4-trifluoroethylsulfonylaminomethyl)phenyl-2,4-pyrimidinediamine]	7.33	6.08
CNS(=O)(=O)c1cc(Nc2ncc(C)c(Nc3ccc(CNS(=O)(=O)C4CC4)cc3)n2)ccc1C [Compound I-185, N4-(4-cyclopropylsulfonylaminomethyl)phenyl-5-methyl-N2-(4-methyl-3-methylaminosulfonyl)phenyl-2,4-pyrimidinediamine]	7.65	7.07
COCCCNS(=O)(=O)c1cccc(Nc2ncc(C)c(Nc3ccc(CNS(=O)(=O)C4CC4)cc3)n2)c1 [Compound I-182, N4-(4-cyclopropylsulfonylaminomethyl)phenyl-N2-[3-(3-methoxypropyl)aminosulfonyl]phenyl-5-methyl-2,4-pyrimidinediamine]	7.59	6.99
CCNS(=O)(=O)c1cccc(Nc2ncc(C)c(Nc3cccc(CNS(=O)(=O)C4CC4)c3)n2)c1 [Compound I-208, N4-(3-cyclopropylsulfonylaminomethyl)phenyl-N2-(3-ethylaminosulfonyl)phenyl-5-methyl-2,4-pyrimidinediamine]	7.13	6.59
Cc1cnc(Nc2cccc(S(=O)(=O)NC(C)C)c2)nc1Nc1ccc(CNS(=O)(=O)C2CC2)cc1 [Compound I-173, N4-(4-cyclopropylsulfonylaminomethyl)phenyl-N2-(3-isopropylaminosulfonyl)phenyl-5-methyl-2,4-pyrimidinediamine]	7.46	6.96
COCCCNS(=O)(=O)c1cc(Nc2ncc(C)c(Nc3ccc(CNS(=O)(=O)C4CC4)cc3)n2)ccc1C [Compound I-191, N4-(4-cyclopropylsulfonylaminomethyl)phenyl-N2-[3-(3-methoxypropyl)aminosulfonyl-4-methyl]phenyl-5-methyl-2,4-pyrimidinediamine]	7.29	6.61
